Test results reported in patent publication US6696607B2 (priority 2000, dated 2004).

Test system: Phytophthora infestans
Type: in vivo
Settings: 63 ppm active ingredient; tomato leaves infected one week after application; assessed after 6 days; untreated plants 100%

For CO/N=C(/C(=O)NCCc1ccc(OC)c(OC)c1)c1ccc(Cl)cc1 [comparative active ingredient], the disease level was 40%.
